Data: US10590143B2, “Herbicidally active (alkynyl-phenyl)-substituted cyclic dione compounds and derivatives thereof” (Syngenta Limited, priority 2013, dated 2020)

Experiments:
Assay in all cases: Biological Example 3 glasshouse assay for herbicidal activity, using various adjuvant systems
Assay type in all cases: in vivo
Conditions in all cases: post-emergence, 8 g/ha, 14 or 15 DAA; adjuvant 0.5% v/v + 1.0% AMS + 12.5% IPA: TEHP (A3-A7), Adigor (A8, P1, P2, P4), Hexamoll DINCH (A1)
[1] = test system: Brachiaria decumbens (BRADC)
Procedure: (§1) • Materials and Methods • Herbicide Application: Post-emergence foliar spray application, 200 L/ha, usually one or two replicates for the weeds (depending on application rate), and two replicates for soybean. • Climate: Standard warm conditions (tropical), in glasshouse. Specifically, the glasshouse bay conditions are 24° C./18° C. day/night; 16/8 hours light/dark; 65% humidity. • Plants: The herbicidal application takes place at the following growth stages for plants which include inter alia one or more of the following plants (usually the herbicidal application takes place on at least the following plants: DIGSA, ELEIN, SETFA, ZEAMX, GLXMA Nikko, and GLXMA TMG133, and often also either BRADC or BRAPP): • Brachiaria decumbens (BRADC)—growth stage (GS) 12 or 13 (or GS 12)—or, if BRADC is not used, then usually Brachiaria platyphylla (BRAPP)—growth stage 12 or 13 • Digitaria sanguinalis (DIGSA)—growth stage 12 or 13 • Eleusine indica (ELEIN)—growth stage 12 or 13 • Setaria faberi (SETFA)—growth stage 12 or 13 • Echinochloa crus-galli (ECHCG)—growth stage 12 or 13 • Sorghum halepense (annual) (SORHA)—growth stage 12 or 13 • Panicum dichotomiflorum (PANDI)—growth stage 12 or 13 • Zea mays (ZEAMX, maize/corn, e.g. can occur as volunteer corn) cultivar “Garland”—growth stage 12 or 13 • Glycine max (GLXMA, soybean) cultivar “Nikko”—growth stage: 1st trifoliate • Glycine max (GLXMA, soybean) cultivar “TMG133”—which is Roundup Ready™ glyphosate-tolerant soybean cultivar TMG133 (typically available from Monsanto in Brazil)—growth stage: 1st trifoliate. • Herbicidal Compositions Tested:
(§2) Each test compound is applied with one of the following adjuvant systems (all percentages are final concentrations in the aqueous spray mixture): • Adjuvant system 1: 0.5% v/v Adigor™*, 1.0% v/v AMS (ammonium sulphate) and 12.5% v/v IPA (isopropyl alcohol). • Adjuvant system 2: 0.5% v/v Hexamoll™ DINCH**, 1.0% v/v AMS (ammonium sulphate) and 12.5% v/v IPA (isopropyl alcohol). • Adjuvant system 3: 0.5% v/v tris-(2-ethylhexyl)phosphate (“TEHP”), 1.0% v/v AMS (ammonium sulphate) and 12.5% v/v IPA (isopropyl alcohol). ***Adigor™ (currently available in many countries from Syngenta) is an emulsifiable concentrate which consists of: • (i) ethoxylated alcohols, which typically includes ethoxylated higher alcohols (e.g. ethoxylates of alcohols wherein the alcohols are within the range of C12-C22); and • (ii) a mixture of heavy aromatic hydrocarbons, which typically includes (e.g. includes 50% or more by weight of the heavy aromatic hydrocarbons of) a mixture of naphthalenes each of which is substituted by one or more alkyls wherein the alkyl(s) in total have 1-4 carbon atoms per naphthalene molecule (e.g. Solvesso 200 ND™); and • (iii) about 47% w/w and/or about 45% w/v (with respect to the emulsifiable concentrate) of methylated rapeseed oil (rapeseed oil methyl ester) (e.g. Agnique ME 18 RD-F™), as an adjuvant. **Hexamoll™ DINCH™ is 1,2-cyclohexane dicarboxylic acid di-isononyl ester
(§3) Seeds of the weed (including volunteer) plants, typically including inter alia Digitaria sanguinalis (DIGSA), Eleusine indica (ELEIN), Setaria faberi (SETFA), Zea mays (ZEAMX, corn), and sometimes also [either Brachiaria decumbens (BRADC) or Brachiaria platyphylla (BRAPP)], are sown in seed trays (troughs) containing clay loam soil (pH 7.0, 2.2% organic matter, “Trough Mix A”); and soybean seed is sown in pots containing the same soil with 3 soybean seedlings per pot. The plants are sprayed with the test herbicide when they reach the growth stages mentioned above.
(§4) The test herbicidal solutions are prepared by mixing the appropriate aliquots of the test substance(s) and one of the adjuvant systems indicated above*** in deionised water to give the desired treatment concentration.
(§5) The herbicidal application is made as a foliar spray, using a tracksprayer. Following the herbicidal application, the plants are watered twice per day for the duration of the test. […]

Eleusine indica (ELEIN) = test system: Eleusine indica (ELEIN)
Procedure: as §1, §2, §3, §4, §5

[2] = test system: Digitaria sanguinalis (DIGSA)
Procedure: as §1, §2, §3, §4, §5

Setaria faberi (SETFA) = test system: Setaria faberi (SETFA)
Procedure: as §1, §2, §3, §4, §5

Row | Compound | percentage control of (percentage phytotoxicity on) Brachiaria decumbens (BRADC) [1] [%] | percentage control of (percentage phytotoxicity on) Eleusine indica (ELEIN) (Eleusine indica (ELEIN)) [%] | percentage control of (percentage phytotoxicity on) Digitaria sanguinalis (DIGSA) [2] [%] | percentage control of (percentage phytotoxicity on) Setaria faberi (SETFA) (Setaria faberi (SETFA)) [%]
1 | COc1cc(C#CCl)cc(F)c1C1C(=O)C2CCC(C2)C1=O (centres unmarked) [Compound A8, 3-[4-(2-chloroethynyl)-2-fluoro-6-methoxy-phenyl]bicyclo[3.2.1]octane-2,4-dione] | 15 | 5 | 30 | 10
2 | CC#Cc1cc(F)c(C2=C(OC(=O)C(C)(C)C)C3CCC(C3)C2=O)c(OC)c1 (centres unmarked) [Compound P1] | – | – | 70 | –
